In US6936602B1, “Benzazepine derivatives, process for the preparation of the same and uses thereof” (Takeda Chemical Industries, Ltd., priority 1999, dated 2005):

Tested on: not given
Assay: not given
Settings: not given

Structure (SMILES)	melting point [°C]
CCCOCCOc1ccc(-c2ccc3c(c2)C=C(C(=O)Nc2ccc(CN(C)C4CCOCC4)cc2)CCN3Cc2ccsc2)cc1 [Compound 57, N-[4-[[N-methyl-N-(tetrahydropyran-4-yl)amino]methyl]phenyl]-7-(4-propoxyethoxyphenyl)-1-(3-thienylmethyl)-2,3-dihydro-1-benzazepine-4-carboxamide]	131.5 to 132.5
CCCOCCOc1ccc(-c2ccc3c(c2)C=C(C(=O)Nc2ccc(CN(C)C4CCOCC4)cc2)CCN3Cc2cccs2)cc1 [Compound 59, N-[4-[[N-methyl-N-(tetrahydropyran-4-yl)amino]methyl]phenyl]-7-(4-propoxyethoxyphenyl)-1-(2-thienylmethyl)-2,3-dihydro-1-benzazepine-4-carboxamide]	104.5 to 105.5
CCCCOCCOc1ccc(-c2ccc3c(c2)C=C(C(=O)Nc2ccc(CN(C)C4CCOCC4)cc2)CCN3Cc2cccs2)cc1 [Compound 60, 7-(4-butoxyethoxyphenyl)-N-[4-[[N-methyl-N-(tetrahydropyran-4-yl)amino]methyl]phenyl]-1-(2-thienylmethyl)-2,3-dihydro-1-benzazepine-4-carboxamide]	84 to 85
CCCOCCOc1ccc(-c2ccc3c(c2)C=C(C(=O)Nc2ccc(CN(C)C4CCOCC4)cc2)CCN3Cc2ccoc2)cc1 [Compound 61, 1-(3-furylmethyl)-N-[4-[[N-methyl-N-(tetrahydropyran-4-yl)amino]methyl]phenyl]-7-(4-propoxyethoxyphenyl)-2,3-dihydro-1-benzazepine-4-carboxamide]	115 to 116
CCCCOCCOc1ccc(-c2ccc3c(c2)C=C(C(=O)Nc2ccc(CN(C)C4CCOCC4)cc2)CCN3Cc2ccoc2)cc1 [Compound 62, 7-(4-butoxyethoxyphenyl)-1-(3-furylmethyl)-N-[4-[[N-methyl-N-(tetrahydropyran-4-yl)amino]methyl]phenyl]-2,3-dihydro-1-benzazepine-4-carboxamide]	116 to 117
CCCCOCCOc1ccc(-c2ccc3c(c2)C=C(C(=O)Nc2ccc(CN(C)C4CCOCC4)cc2)CCN3Cc2ccccc2OCC)cc1 [Compound 63, 7-(4-butoxyethoxyphenyl)-1-(2-ethoxybenzyl)-N-[4-[[N-methyl-N-(tetrahydropyran-4-yl)amino]methyl]phenyl]-2,3-dihydro-1-benzazepine-4-carboxamide]	104.5 to 105.5
CCCCOCCOc1ccc(-c2ccc3c(c2)C=C(C(=O)Nc2ccc(CN(C)C4CCOCC4)cc2)CCN3Cc2cccc(OCCC)c2)cc1 [Compound 64, 7-(4-butoxyethoxyphenyl)-N-[4-[[N-methyl-N-(tetrahydropyran-4-yl)amino]methyl]phenyl]-1-(3-propoxybenzyl)-2,3-dihydro-1-benzazepine-4-carboxamide]	114.5 to 115.5
CCCCOCCOc1ccc(-c2ccc3c(c2)C=C(C(=O)Nc2ccc(CN(C)C4CCOCC4)cc2)CCN3Cc2cc(OC)ccc2OC)cc1 [Compound 65, 7-(4-butoxyethoxyphenyl)-1-(2,5-dimethoxybenzyl)-N-[4-[[N-methyl-N-(tetrahydropyran-4-yl)amino]methyl]phenyl]-2,3-dihydro-1-benzazepine-4-carboxamide]	143 to 144
CC#CCN1CCC(C(=O)Nc2ccc(CN(C)C3CCOCC3)cc2)=Cc2cc(-c3ccc(OCCOCCCC)cc3)ccc21 [Compound 95, 7-[4-(2-butoxyethoxy)phenyl]-1-(2-butynyl)-N-[4-[N-methyl-N-(tetrahydropyran-4-yl)aminomethyl]phenyl]-2,3-dihydro-1-benzazepine-4-carboxamide]	129 to 131
CCCOCCOc1ccc(-c2ccc3c(c2)C=C(C(=O)Nc2ccc(CN(C)C4CCOCC4)cc2)CCN3CCCOC)cc1 [Compound 103, 1-(3-methoxypropyl)-N-[4-[[N-methyl-N-(tetrahydropyran-4-yl)amino]methyl]phenyl]-7-[4-(2-propoxyethoxy)phenyl]-2,3-dihydro-1H-1-benzazepine-4-carboxamide]	87 to 90

Biological target: T1, human CCR5 (Homo sapiens, UniProt P51681)
T1 construct: expressed in transfected cells
Assay: Evaluation of test compounds based on CCR5 antagonistic activity: inhibition of [125I]-RANTES binding to CCR5/CHO cells
Settings: Test Compound 1 μM, 100 pM [125I]-RANTES, room temperature for 40 minutes
Protocol: Cloning of CCR5 gene was carried out by a PCR method from human spleen cDNA. With using 0.5 ng of spleen cDNA (Toyobo, QUICK-Clone cDNA) as template, PCR was performed in DNA Thermal Cycler 480 (Perkin-Elmer) (reaction conditions: 30 cycles of 95° C. for 1 minute, 60° C. for 1 minute, and 75° C. for 5 minutes) by adding each 25 pmol of primers of a primer set, • SEQ ID NO.: 1 described in Test Example (1) of WO 99/32100 [length of sequence: 34; type of sequence: nucleic acid; strandedness: single; topology: straight; kind of sequence: other nucleic acid synthetic DNA, and • SEQ ID NO.: 2 described in Test Example (1) of WO 99/32100 [length of sequence: 34; type of sequence: nucleic acid; strandedness: single; topology: straight; kind of sequence: other nucleic acid synthetic DNA which were designed referring to nucleotide sequence of CCR5 gene reported by Samson et. al. (Biochemistry, 35(11), 3362-3367 (1996)) and by using TaKaRa EX Taq (Takara Shuzo). The resultant PCR product was subjected to agarose gel electrophoresis to collect about 1.0 kb DNA fragment, which was subjected to Original TA Cloning Kit (Funakoshi) to carry out cloning of CCR5 gene. (2) Preparation of Plasmid for Expression of Human CCR5
The plasmid obtained in the above (1) was digested with restriction enzymes XbaI (Takara Shuzo) and BamHI (Takara Shuzo) and subjected to agarose gel electrophoresis to collect about 1.0 kb DNA fragment.
The DNA fragment was mixed with plasmid pcDNA3.1 (Funakoshi) for expression in animal cells, said plasmid being digested with XbaI and BamHI, and they were ligated with DNA Ligation Kit Ver.2 (Takara Shuzo). The resulting plasmid was subjected to transformation of competent cell of E. coli JM109 (Takara Shuzo) to obtain plasmid pCKR5.
CHO-K1 cells were grown in 750 ml of tissue culture flask (Becton Dickinson) using Ham's F12 medium (Nihon Pharmaceutical) containing 10% fetal calf serum (Life Tech Oriental) and taken off with 0.5 g/L trypsin-0.2 g/L EDTA (Life Tech Oriental). The cells were washed with PBS (Life Tech Oriental), centrifuged (1000 rpm, 5 minutes), and suspended in PBS. With using Gene Pulser (Bio-Rad Laboratories), DNA was introduced into the cells under the conditions shown below. That is, to the cuvette of 0.4 cm gap were added 8×10^6 cells and 10 μg of plasmid pCKR5 for expression of human CCR5, and electroporation was carried out under 0.25 kV of voltage and 960 μF of capacitance. The cells were transferred into Ham's F12 medium containing 10% fetal calf serum, and cultivated for 24 hours. The cells were again taken off and centrifuged, and suspended in Ham's F12 medium containing 10% fetal calf serum and 500 μg/ml of geneticin (Life Tech Oriental). The suspension was diluted to give 10^4 cells/ml of the suspension, which was inoculated on a 96 well plate (Becton Dickinson) to give geneticin resistant cells.
The resulting geneticin resistant cells were cultivated in 96 well plate (Becton Dickinson), and cells expressing CCR5 were selected from the geneticin resistant cells. That is, in assay buffer (Ham's F12 medium containing 0.5% BSA and 20 mM HEPES (Wako Pure Chemical, pH7.2)) to which was added 200 pM of [^125I]-RANTES (Amersham) as a ligand, a binding reaction was carried out at room temperature for 46 minutes, and the buffer was washed with cooled PBS. To the buffer was added 50 μl/well of 1M NaOH, and the mixture was stirred. Radioactivity was determined with a y-counter to select CCR5/CHO cells which specifically bind to the ligand.
The CCR5/CHO cells were inoculated on 96 well microplate (5×10^4 cells/well) and cultivated for 24 hours. The medium was removed by means of suction, and to each well was added an assay buffer containing Test Compound (1 μM) and then 100 pM of [^125I]-RANTES (Amersham) as a ligand. A binding assay was carried out at room temperature for 40 minutes, and an assay buffer was removed by means of suction. […]

T1 sequence (P51681 whole entry): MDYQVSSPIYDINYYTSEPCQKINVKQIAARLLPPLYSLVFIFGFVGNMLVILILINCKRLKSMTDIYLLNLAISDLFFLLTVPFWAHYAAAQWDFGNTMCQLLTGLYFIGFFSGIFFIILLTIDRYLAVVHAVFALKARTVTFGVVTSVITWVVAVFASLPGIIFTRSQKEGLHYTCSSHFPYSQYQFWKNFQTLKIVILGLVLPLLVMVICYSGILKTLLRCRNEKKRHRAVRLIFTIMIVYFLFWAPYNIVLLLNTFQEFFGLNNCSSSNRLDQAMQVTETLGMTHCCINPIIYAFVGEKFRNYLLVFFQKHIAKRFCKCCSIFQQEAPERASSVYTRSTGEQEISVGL

Structure (SMILES)	Inhibitory Rate (%)
CCCCOCCOc1ccc(-c2ccc3c(c2)C=C(C(=O)Nc2ccc(CN(C)C4CCOCC4)cc2)CCN3CC)cc1 [Compound 19, 7-[4-(2-butoxyethoxy)phenyl]-1-ethyl-N-[4-[[N-methyl-N-(tetrahydro-2H-pyran-4-yl)amino]methyl]phenyl]-2,3-dihydro-1-H-1-benzazepine-4-carboxamide]	100

Same assay, conditions: Test Compound 1 μM, 100 pM [125I]-RANTES, room temperature for 40 minutes, read-out: Inhibitory Rate (%)

Structure (SMILES)	inhibition at 1 µM [%]
CCOCCOc1ccc(-c2ccc3c(c2)C=C(C(=O)Nc2ccc(CN(C)C4CCOCC4)cc2)CCN3C=O)cc1F [Compound 20, 7-[4-(2-ethoxy)ethoxy-3-fluorophenyl]-1-formyl-N-[4-[[N-methyl-N-(tetrahydro-2H-pyran-4-yl)amino]methyl]phenyl]-2,3-dihydro-1H-1-benzazepine-4-carboxamide]	94
CCCCOCCOc1ccc(-c2ccc3c(c2)C=C(C(=O)Nc2ccc(CN(C)C4CCOCC4)cc2)CCN3c2ccccc2)cc1 [Compound 39, 7-[4-(2-butoxyethoxy)phenyl]-1-phenyl-N-[4-[[N-methyl-N-(tetrahydro-2H-pyran-4-yl)amino]methyl]phenyl]-2,3-dihydro-1H-1-benzazepine-4-carboxamide]	98
CCCCOCCOc1ccc(-c2ccc3c(c2)C=C(C(=O)Nc2ccc(CN(C)C4CCOCC4)cc2)CCN3c2ccc3c(c2)OCO3)cc1 [Compound 43, 7-[4-(2-butoxyethoxy)phenyl]-1-(3,4-methylenedioxyphenyl)-N-[4-[[N-methyl-N-(tetrahydro-2H-pyran-4-yl)amino)methyl]phenyl]-2,3-dihydro-1H-1-benzazepine-4-carboxamide]	100
CCCCOCCOc1ccc(-c2ccc3c(c2)C=C(C(=O)Nc2ccc(CN(C)C4CCOCC4)cc2)CCN3Cc2nccs2)cc1 [Compound 68, 7-(4-butoxyethoxyphenyl)-N-[4-[[N-methyl-N-(tetrahydropyran-4-yl)amino]methyl]phenyl]-1-(thiazol-2-yl)methyl-2,3-dihydro-1-benzazepine-4-carboxamide]	95
CCCCOCCOc1ccc(-c2ccc3c(c2)C=C(C(=O)Nc2ccc(CN(C)C4CCOCC4)cc2)CCN3Cc2cnn(C)c2)cc1 [Compound 69, 7-(4-butoxyethoxyphenyl)-1-[(1-methylpyrazol-4-yl)methyl]-N-[4-[[N-methyl-N-(tetrahydropyran-4-yl)amino]methyl]phenyl]-2,3-dihydro-1-benzazepine-4-carboxamide]	100
CCCCOCCOc1ccc(-c2ccc3c(c2)C=C(C(=O)Nc2ccc(CN(C)C4CCOCC4)cc2)CCN3Cc2c(C)noc2C)cc1 [Compound 71, 7-(4-butoxyethoxyphenyl)-1-[(3,5-dimethylisoxazol-4-yl)methyl]-N-[4-[[N-methyl-N-(tetrahydropyran-4-yl)amino]methyl]phenyl]-2,3-dihydro-1-benzazepine-4-carboxamide]	100
CCCCOCCOc1ccc(-c2ccc3c(c2)C=C(C(=O)Nc2ccc(CN(C)C4CCCOC4)cc2)CCN3Cc2cc(C)ns2)cc1 (stereo not drawn) [Compound 77, 7-(4-butoxyethoxyphenyl)-1-[(3-methylisothiazol-5-yl)methyl]-N-[4-[[N-methyl-N-(tetrahydropyran-5-yl)amino]methyl]phenyl]-2,3-dihydro-1-benzazepine-4-carboxamide]	97
